In article PMC10658920 (The Journal of Pharmacology and Experimental Therapeutics, 2023):
Where “and” joins values, the source holds several entries; their conditions need not be identical. Equal values may be shown once. Entries after “also recorded” stand apart in the source; their conditions may differ. Read-outs that look alike come from different tables or passages of the source.

Columns and labels:
[1] = test system: CYP3A; assay: IC50 shift experiment, midazolam 1’-hydroxylation in human intestinal microsomes
[2] = Dissolution of goldenseal capsules in FaSSIF; assay type: physicochemical; details: two goldenseal capsules in 250 ml FaSSIF, within 20 minutes
[3] = clinical; details: both, human, in vivo, AUC0–12.5h, Observed
[4] = both, human, in vivo
[5] = test system: CYP3A; details: cited from earlier work
[6] = test system: CYP3A; details: HLMs, 2020, cited from earlier work
[7] = Clinical pharmacokinetic study, plasma and urine, noncompartmental analysis; details: for tmax: median [range]
[8] = Apparent permeability, apical to basolateral, Caco-2 cell monolayers; assay type: in vitro ADME; details: human
[9] = test system: CYP3A; assay: Allosterism of midazolam hydroxylation in HIMs by berberine; details: for effect on 1’-hydroxymidazolam formation: reversible design
[10] = Time-dependent inhibition of midazolam 1’-hydroxylation in HIMs; details: microsomal incubation mixture, 37 °C, aqueous buffer, kinetic from dmso stock
[11] = test system: CYP3A; assay: as above; details: HIMs
[12] = Baseline: oral midazolam 2.5 mg alone; median [range]; ref Nguyen et al., 2021; cited from earlier work
[13] = Baseline: oral midazolam 2.5 mg alone, geometric mean [90% CI]
[14] = 6-hour blood collection, ref Gurley et al., 2008

Question: Which “leftward shift in IC50 after preincubation with NADPH” value ([1]; HIMs) does the source give for `COc1ccc2cc3[n+](cc2c1OC)CCc1cc2c(cc1-3)OCO2` [berberine] here?
Answer: Its value is “not observed”.

Question: What about the “IC50, midazolam 1’-hydroxylation” value ([1]; HIMs 0.05 mg/ml, 30 min preincubation in absence of NADPH, 4 μM midazolam) of the same compound?
Answer: The value was “apparent activation; also recorded: unattainable”.

Question: What about the total content dissolved [2] of the same compound?
Answer: Its total content dissolved is “More than 80%”.

Question: And the AUC(0-t) [3]?
Answer: Its AUC(0-t) is 4.58 nM·h.

Question: And the “AUC0–12.5h, Observed” value [4]?
Answer: The value was 7.81 [6.17–9.89] nM*h.

Question: What about the “increase in midazolam AUC” value ([5]; berberine 300 mg thrice daily × 14 days, ref Guo et al., 2012) of the same compound?
Answer: Its value is 40%.

Question: What about the “TDI of CYP3A activity (midazolam 1’-hydroxylation), in words” value ([6]; ref Chatterjee and Franklin, 2003, McDonald et al.) of the same compound?
Answer: Its value is “demonstrated TDI”.

Question: And the “IC50 (reversible inhibition)” value ([6]; ref McDonald et al.)?
Answer: Its value is “unattainable”.

Question: And the kinact/KI ([6]; ref McDonald et al.)?
Answer: The kinact/KI was 21.7 M⁻¹ s⁻¹.

Question: What about the AUC(0-inf) ([7]; both, human, plasma, oral) of the same compound?
Answer: Its AUC(0-inf) is 46.7 nM·h.

Question: And the Papp at 10 μM [8]?
Answer: The Papp at 10 μM was 0.18 ×10⁻⁶ cm/s.

Question: What about the “effect on midazolam 4-hydroxylation” value ([9]; berberine 5–100 μM) of the same compound?
Answer: Its value is “inhibited”.

Question: And the “effect on 1’-hydroxymidazolam/4-hydroxymidazolam ratio” value ([9]; particularly at midazolam ≤5 μM)?
Answer: The value was “concentration-dependent increase”.

Question: And the “effect on 1’-hydroxymidazolam formation” value ([9]; midazolam ≤5 μM)?
Answer: Its value is “activated”.

Question: What about the “effect on 1’-hydroxymidazolam formation” value ([9]; midazolam ≥50 μM) of the same compound?
Answer: Its value is “inhibited”.

Question: What about the solubility [10] of the same compound?
Answer: The solubility was ≤ 500 µM.

Question: What about the “inhibition of midazolam 1’-hydroxylation (in words)” value [11] of the same compound?
Answer: The value was “concentration-dependent and time-dependent inhibition”.

Question: What about the kinact/KI [11] of the same compound?
Answer: The kinact/KI was 4.07 M⁻¹ s⁻¹ and ~4 M⁻¹ s⁻¹.

Question: And the KI ([11]; time-dependent inhibition of midazolam 1’-hydroxylation)?
Answer: Its KI is > 250 µM and 250 µM.

Question: And the kinact ([11]; human, human intestinal microsomes, probe midazolam (40 μM), 1'-hydroxylation, kinact, time-dependent inhibition of midazolam 1’-hydroxylation)?
Answer: The kinact was ~0.001 s⁻¹.

Question: With `Cc1ncc2n1-c1ccc(Cl)cc1C(c1ccccc1F)=NC2O` (centres unmarked) [4-Hydroxymidazolam, 4-hydroxymidazolam] as the compound, how does the CLR [7, 13] read?
Answer: Its CLR is “Concentrations of metabolites in urine were below the detectable limit”.

Question: What about the “MP ratio (metabolite AUC0–12h to midazolam AUC0–12h)” value [7, 13] of the same compound?
Answer: Its value is 0.045 [0.039–0.051].

Question: And the AUC(0-t) ([7]; both, human, plasma, po, 2.5 mg, AUC0–12h, Baseline: oral midazolam 2.5 mg alone, geometric mean [90% CI])?
Answer: Its AUC(0-t) is 2.78 nM·h.

Question: And the half-life ([7]; both, human, plasma, po, 2.5 mg, t1/2, Baseline: oral midazolam 2.5 mg alone, geometric mean [90% CI])?
Answer: Its half-life is 1.68 h.

Question: What about the tmax ([7]; both, human, plasma, po, 2.5 mg, tmax, Baseline: oral midazolam 2.5 mg alone) of the same compound?
Answer: Its tmax is 1 h.

Question: What about the tmax ([7]; both, human, plasma, po, tmax, Chronic exposure: goldenseal 1 g thrice daily for 6 days, midazolam 2.5 mg oral) of the same compound?
Answer: Its tmax is 1 h.

Question: Which “midazolam half-life at baseline” value [5, 14] does the source give for `Cc1ncc2n1-c1ccc(Cl)cc1C(c1ccccc1F)=NC2` [Midazolam] here?
Answer: Its value is 2.0 h.

Question: And the “midazolam half-life in the presence of goldenseal” value [5, 14]?
Answer: The value was 3.1 h.

Question: What about the CL renal ([7]; both, human, plasma and urine, po) of the same compound?
Answer: The CL renal was 1.08 mL/min.

Question: What about the tmax [12] of the same compound?
Answer: The tmax was 0.67 [0.33–1.00] h.

Question: What does the source list for `OCc1ncc2n1-c1ccc(Cl)cc1C(c1ccccc1F)=NC2` [1’-Hydroxymidazolam, 1’-hydroxymidazolam]?
Answer: AUC0–12h [7, 13]: 29.0 [24.4–34.4] nM*h; AUCinf [7, 13]: 33.1 [27.9–39.0] nM*h; CLR [7, 13]: 0.17 [0.14–0.20] n = 15 l/h; Cmax [7, 13]: 12.3 nM; MP ratio (metabolite AUC0–12h to midazolam AUC0–12h) [7, 13]: 0.47 [0.40–0.54]; t1/2 [7, 13]: 6.25 [5.27–7.40] h; tmax ([7]; Baseline: oral midazolam 2.5 mg alone): 0.67 [0.33–1.00] h; tmax ([7]; Chronic exposure: goldenseal 1 g thrice daily for 6 days, midazolam 2.5 mg oral): 0.67 [0.33–1.50] h
